Results: ChEMBL document CHEMBL1201862, “PubChem BioAssay data set” (2004)
Calls of active or inactive are those of the source. No stated cut-off is given here; in the data, actives have a measured IC50 and inactives only a lower limit.

Columns and labels:
Assay type in all cases: functional
[1] = molecular target: T1, Sentrin-specific protease 6 (Homo sapiens, UniProt Q9GZR1); test: SENP6 protease inhibitors, SAR follow-up, biochemical, luminescence, set 2 (AID 588598)
T1 sequence (Q9GZR1 whole entry): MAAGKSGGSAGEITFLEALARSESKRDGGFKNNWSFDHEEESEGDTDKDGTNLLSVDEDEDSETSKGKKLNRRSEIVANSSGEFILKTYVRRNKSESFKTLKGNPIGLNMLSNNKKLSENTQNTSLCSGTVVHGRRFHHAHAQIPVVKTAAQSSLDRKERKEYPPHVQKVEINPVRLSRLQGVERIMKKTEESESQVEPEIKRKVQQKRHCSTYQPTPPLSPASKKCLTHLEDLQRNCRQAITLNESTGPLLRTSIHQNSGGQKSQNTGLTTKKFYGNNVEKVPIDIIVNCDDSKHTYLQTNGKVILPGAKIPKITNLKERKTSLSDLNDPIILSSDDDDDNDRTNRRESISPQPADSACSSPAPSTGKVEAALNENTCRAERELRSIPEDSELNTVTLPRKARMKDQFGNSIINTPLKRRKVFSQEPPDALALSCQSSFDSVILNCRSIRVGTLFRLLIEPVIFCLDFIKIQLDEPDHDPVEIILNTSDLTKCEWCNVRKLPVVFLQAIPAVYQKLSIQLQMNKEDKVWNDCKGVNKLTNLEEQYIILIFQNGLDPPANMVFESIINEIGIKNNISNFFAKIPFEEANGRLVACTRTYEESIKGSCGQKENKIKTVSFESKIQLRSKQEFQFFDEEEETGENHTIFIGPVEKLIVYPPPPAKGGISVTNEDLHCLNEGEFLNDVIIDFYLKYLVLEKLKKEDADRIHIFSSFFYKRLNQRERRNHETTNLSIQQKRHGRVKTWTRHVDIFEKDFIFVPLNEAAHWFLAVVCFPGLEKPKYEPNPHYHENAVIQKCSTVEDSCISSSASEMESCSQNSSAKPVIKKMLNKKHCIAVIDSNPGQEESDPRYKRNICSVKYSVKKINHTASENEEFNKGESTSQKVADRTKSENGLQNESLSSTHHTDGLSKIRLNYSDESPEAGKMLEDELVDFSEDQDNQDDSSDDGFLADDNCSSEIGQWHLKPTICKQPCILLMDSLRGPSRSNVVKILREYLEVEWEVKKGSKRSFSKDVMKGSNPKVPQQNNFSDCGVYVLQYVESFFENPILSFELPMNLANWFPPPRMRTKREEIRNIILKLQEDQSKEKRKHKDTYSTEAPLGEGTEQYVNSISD

Caspase-3 = molecular target: T2, Caspase-3 (Homo sapiens, UniProt P42574); test: caspase-3 inhibitors as off-family protease, SAR follow-up, selectivity assay for SENP protease inhibitor project, biochemical, luminescence, set 2 (AID 588599)
T2 sequence (P42574 whole entry): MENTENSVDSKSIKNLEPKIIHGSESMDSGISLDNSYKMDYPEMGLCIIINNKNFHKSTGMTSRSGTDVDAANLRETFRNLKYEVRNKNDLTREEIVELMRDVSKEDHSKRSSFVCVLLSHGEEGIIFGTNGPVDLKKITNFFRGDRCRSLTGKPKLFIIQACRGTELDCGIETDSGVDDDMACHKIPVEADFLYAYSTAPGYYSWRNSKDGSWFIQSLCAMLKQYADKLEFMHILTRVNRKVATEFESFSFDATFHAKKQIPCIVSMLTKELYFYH

[2] = molecular target: T3, Sentrin-specific protease 7 (Homo sapiens, UniProt Q9BQF6); test: SENP7 protease inhibitors, SAR follow-up, biochemical, luminescence, set 2 (AID 588600)
T3 sequence (Q9BQF6 whole entry): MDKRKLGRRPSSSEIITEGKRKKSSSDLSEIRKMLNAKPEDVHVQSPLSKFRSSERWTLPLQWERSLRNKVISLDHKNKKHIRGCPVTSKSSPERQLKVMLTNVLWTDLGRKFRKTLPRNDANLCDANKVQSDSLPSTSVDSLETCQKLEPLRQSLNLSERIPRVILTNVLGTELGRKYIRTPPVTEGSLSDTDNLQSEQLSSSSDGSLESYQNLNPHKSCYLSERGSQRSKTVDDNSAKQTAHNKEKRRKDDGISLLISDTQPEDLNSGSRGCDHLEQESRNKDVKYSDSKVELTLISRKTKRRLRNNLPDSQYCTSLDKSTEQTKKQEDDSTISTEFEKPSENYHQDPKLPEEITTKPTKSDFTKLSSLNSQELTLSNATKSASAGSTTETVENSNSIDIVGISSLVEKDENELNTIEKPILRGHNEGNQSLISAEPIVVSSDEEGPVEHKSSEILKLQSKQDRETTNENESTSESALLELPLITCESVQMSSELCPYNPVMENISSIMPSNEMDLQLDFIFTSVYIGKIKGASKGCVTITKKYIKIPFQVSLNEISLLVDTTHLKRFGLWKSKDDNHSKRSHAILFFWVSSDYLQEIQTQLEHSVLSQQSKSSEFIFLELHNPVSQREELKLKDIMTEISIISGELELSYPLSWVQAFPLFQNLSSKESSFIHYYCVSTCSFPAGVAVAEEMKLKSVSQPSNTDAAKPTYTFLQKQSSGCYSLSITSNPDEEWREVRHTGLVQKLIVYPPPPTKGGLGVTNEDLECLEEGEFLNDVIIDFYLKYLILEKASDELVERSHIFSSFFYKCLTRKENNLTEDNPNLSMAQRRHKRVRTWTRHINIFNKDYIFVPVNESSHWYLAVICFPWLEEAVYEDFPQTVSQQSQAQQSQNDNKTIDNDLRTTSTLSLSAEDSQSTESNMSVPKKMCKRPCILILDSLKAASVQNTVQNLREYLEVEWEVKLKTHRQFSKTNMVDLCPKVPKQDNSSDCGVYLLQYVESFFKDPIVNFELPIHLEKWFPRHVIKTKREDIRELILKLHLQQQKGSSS

[3] = molecular target: T4, Sentrin-specific protease 8 (Homo sapiens, UniProt Q96LD8); test: SENP8 protease inhibitors, SAR follow-up, biochemical, luminescence, set 2 (AID 588601)
T4 sequence (Q96LD8 whole entry): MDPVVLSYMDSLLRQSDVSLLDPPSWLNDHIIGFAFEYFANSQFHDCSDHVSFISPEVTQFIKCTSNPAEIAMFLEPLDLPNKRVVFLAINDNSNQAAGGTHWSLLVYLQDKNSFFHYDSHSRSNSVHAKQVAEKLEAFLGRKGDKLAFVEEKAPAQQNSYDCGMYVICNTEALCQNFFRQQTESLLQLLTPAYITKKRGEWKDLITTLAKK

IC50 [1]: > 99 µM (inactive) | IC50 (Caspase-3): > 99 µM (inactive) | IC50 [2]: > 99 µM (inactive)
SMILES: CCCN(CCC)S(=O)(=O)c1ccc2[nH]cc(/C=N/NC(=S)Nc3ccc(F)c(Cl)c3)c2c1
IC50 [3]: > 99 µM (inactive)
